In patent publication US20230339937A1, “CONDENSED RING COMPOUNDS THAT INHIBIT H-PGDS” (SATO PHARMACEUTICAL CO., LTD., priority 2020, published 2023) one finds IC50 data, which are given here for 39 compounds.

The assay concerns the target T1, Recombinant human H-PGDS (Homo sapiens, UniProt O60760).
T1 construct: made in house; host or cells: E. coli
Description: H-PGDS inhibitory activity (prostaglandin D2 production from prostaglandin H2, measured by LC-MS/MS). The note with it: recombinant human H-PGDS 1.0 nM expressed in E. coli; prostaglandin H2 25 μM; preincubated 15 minutes on ice, reacted on ice for 1 minute; concentration that inhibits prostaglandin D2 production by 50%. It is filed as biochemical. In a few lines:
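PGD2 formed from 25 µM prostaglandin H2 during a 1-min on-ice reaction was measured by LC-MS/MS after an FeCl2/citric acid stop. The enzyme was 1.0 nM E. coli-expressed human H-PGDS in Tris-HCl pH 8.0 buffer with MgCl2, reduced glutathione and γ-globulin, preincubated with compound for 15 min on ice. Production was normalised to DMSO controls minus the no-enzyme background.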

T1 sequence (O60760 whole entry): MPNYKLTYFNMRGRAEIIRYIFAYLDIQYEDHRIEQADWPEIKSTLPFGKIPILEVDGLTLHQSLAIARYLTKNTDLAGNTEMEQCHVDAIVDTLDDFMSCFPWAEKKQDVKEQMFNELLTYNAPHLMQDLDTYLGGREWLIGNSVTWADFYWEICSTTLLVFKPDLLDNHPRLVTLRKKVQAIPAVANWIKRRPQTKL

Usually IC50 stands for the concentration that inhibits the measured activity by half. Turning to `Cc1nnnn1[C@H]1CC[C@H](NC(=O)c2ccc(-c3nccc4occc34)cc2)CC1` [Example 297, 4-(furo[3,2-c]pyridin-4-yl)-N-[trans-4-(5-methyl-1H-tetrazol-1-yl)cyclohexyl]benzamide], the IC50 worked out at 1.9 nM. Consider `O=C(NCC1CCCC1)c1ccc(-c2nccc3[nH]ccc23)cc1` [Example 36, N-(cyclopenthyl-methyl)-4-(1H-pyrrolo[3,2-c]pyridin-4-yl)benzamide], for which the 50% inhibitory concentration (IC50) was 0.83 nM. Turning to `O=C(N[C@@H]1CN(c2ncc(CO)cn2)C[C@H]1O)c1ccc(-c2nccc3occc23)cc1` [Example 207, 4-(furo[3,2-c]pyridin-4-yl)-N-((3R,4R)-4-hydroxy-1-[5-(hydroxymethyl)pyrimidin-2-yl]pyrrolidin-3-yl)benzamide], the IC50 turned out to be 6.7 nM. As for `CCOC(=O)c1cnc(N2CCC(NC(=O)c3ccc(-c4nccc5occc45)cc3)CC2)nc1` [Example 158, Ethyl 2-{4-[4-(furo[3,2-c]pyridin-4-yl)benzamide]piperidin-1-yl}pyrimidine-5-carboxylate], the 50% inhibitory concentration (IC50) is 0.69 nM. For `CC(C)(O)[C@H]1CC[C@H](NC(=O)c2ccc(-c3ncc(C#N)c4occc34)cc2)CC1` [Example 139, 4-(7-cyanofuro[3,2-c]pyridin-4-yl)-N-[trans-4-(2-hydroxypropan-2-yl)cyclohexyl]benzamide], the IC50 was determined as 251 nM. Take `O=C(NC1CCN(c2ccccc2)CC1)c1ccc(-c2nccc3occc23)cc1` [Example 115, 4-(furo[3,2-c]pyridin-4-yl)-N-(1-phenylpiperidin-4-yl)benzamide]: the 50% inhibitory concentration (IC50) was found to be 1.1 nM.

In the case of `N#Cc1cccc(CNC(=O)c2ccc(-c3nccc4occc34)cc2)c1` [Example 73, N-(3-cyanobenzyl)-4-(furo[3,2-c]pyridin-4-yl)benzamide], the 50% inhibitory concentration (IC50) came out at 4.8 nM. With `O=C(N[C@H]1CC[C@H](O)CC1)c1ccc(-c2nccc3[nH]ccc23)cc1` [Example 337, N-(trans-4-hydroxycyclohexyl)-4-(1H-pyrrolo[3,2-c]pyridin-4-yl)benzamide], the 50% inhibitory concentration (IC50) came out at 0.44 nM. Regarding `Cc1cnc(N2CCC(NC(=O)c3ccc(-c4nccc5occc45)cc3)CC2)nc1` [Example 156, 4-(furo[3,2-c]pyridin-4-yl)-N-[1-(5-methylpyrimidin-2-yl)piperidin-4-yl]benzamide], the IC50 worked out at 1.6 nM. Next, `O=C(NC1CCN(c2cc(Cl)ncn2)CC1)c1ccc(-c2nccc3occc23)cc1` [Example 146, N-[1-(6-chloropyrimidin-4-yl)piperidin-4-yl]-4-(furo[3,2-c]pyridin-4-yl)benzamide]: 1 nM. To `O=C(NC1CCN(c2ncccc2F)CC1)c1ccc(-c2nccc3occc23)cc1` [Example 144, N-[1-(3-fluoropyridin-2-yl)piperidin-4-yl]-4-(furo[3,2-c]pyridin-4-yl)benzamide] belongs 1.5 nM; to `CC(C)(O)CNC(=O)c1ccc(-c2nccc3[nH]ccc23)cc1` [Example 32, N-(2-hydroxy-2-methylpropyl)-4-(1H-pyrrolo[3,2-c]pyridin-4-yl)benzamide], 1.5 nM; to `NS(=O)(=O)c1ccc(NC(=O)c2ccc(-c3nccc4occc34)cc2)cc1` [Example 102, 4-(furo[3,2-c]pyridin-4-yl)-N-(4-sulfamoylphenyl) benzamide], 1.8 nM. To `O=C(NC1CCN(c2nccs2)CC1)c1ccc(-c2nccc3occc23)cc1` [Example 101, 4-(furo[3,2-c]pyridin-4-yl)-N-[1-(thiazol-2-yl)piperidin-4-yl]benzamide] belongs 1 nM; to `N#Cc1ccc(CNC(=O)c2ccc(-c3nccc4occc34)cc2)cc1` [Example 74, N-(4-cyanobenzyl)-4-(furo[3,2-c]pyridin-4-yl)benzamide], 6.3 nM; to `CCC(O)[C@H]1CC[C@H](NC(=O)c2ccc(-c3nccc4occc34)cc2)CC1` (stereo partly drawn) [Example 308, 4-(furo[3,2-c]pyridin-4-yl)-N-[trans-4-(1-hydroxypropyl)cyclohexyl]benzamide], 1.5 nM. As to `Cn1nnc(N2CCC(NC(=O)c3ccc(-c4nccc5occc45)cc3)CC2)n1` [Example 249, 4-(furo[3,2-c]pyridin-4-yl)-N-[1-(2-methyl-2 H-tetrazol-5-yl)piperidin-4-yl]benzamide], the IC50 stood at 1.6 nM. As for `O=C(N[C@@H]1C[C@H]2C[C@@H](O)C[C@H]2C1)c1ccc(-c2nccc3occc23)cc1` [Example 282, 4-(furo[3,2-c]pyridin-4-yl)-N-[(2r,3aR,5r,6aS)-5-hydroxyoctahydropentalen-2-yl]benzamide], the 50% inhibitory concentration (IC50) worked out at 1.3 nM.

Consider `CCOCCNC(=O)c1ccc(-c2nccc3[nH]ccc23)cc1` [Example 27, N-(2-ethoxyethyl)-4-(1H-pyrrolo[3,2-c]pyridin-4-yl)benzamide], for which the half-maximal inhibitory concentration (IC50) is 0.98 nM. In the case of `NC(=O)C12CCC(NC(=O)c3ccc(-c4nccc5occc45)cc3)(CC1)CC2` [Example 352, 4-[4-(furo[3,2-c]pyridin-4-yl)benzamide]bicyclo[2.2.2]octane-1-carboxamide], the half-inhibitory concentration (IC50) was found to be 0.89 nM.

`O=C(NC1CCN(CC(F)(F)F)CC1)c1ccc(-c2nccc3occc23)cc1` [Example 180, 4-(furo[3,2-c]pyridin-4-yl)-N-[1-(2,2,2-trifluoroethyl)piperidin-4-yl]benzamide]: the half-inhibitory concentration (IC50) is 0.96 nM. With `O=C(NCc1cccc(Cl)c1)c1ccc(-c2nccc3occc23)cc1` [Example 69, N-(3-chlorobenzyl)-4-(furo[3,2-c]pyridin-4-yl)benzamide], the IC50 is 6 nM.

Regarding `O=C(Nc1ccccc1)c1ccc(-c2nccc3[nH]ccc23)cc1` [Example 16, N-phenyl-4-(1H-pyrrolo[3,2-c]pyridin-4-yl)benzamide], the half-maximal inhibitory concentration (IC50) was determined as 1.1 nM. Next, `CC(=O)N(C(C)=O)c1cnc(N2CCC(NC(=O)c3ccc(-c4nccc5occc45)cc3)CC2)nc1` [Example 188, N-{1-[5-(N-acetylacetamide)pyrimidin-2-yl]piperidin-4-yl}-4-(furo[3,2-c]pyridin-4-yl)benzamide]: 4.3 nM; `N#Cc1ccnc(N2CCC(NC(=O)c3ccc(-c4nccc5occc45)cc3)CC2)n1` [Example 164, N-[1-(4-cyanopyrimidin-2-yl)piperidin-4-yl]-4-(furo[3,2-c]pyridin-4-yl)benzamide]: 0.78 nM. For the compound `O=C(NCc1ccco1)c1ccc(-c2nccc3[nH]ccc23)cc1` [Example 26, N-(furan-2-ylmethyl)-4-(1H-pyrrolo[3,2-c]pyridin-4-yl)benzamide], the IC50 worked out at 1.7 nM. Next, `CC(O)CNC(=O)c1ccc(-c2nccc3[nH]ccc23)cc1` (stereo not drawn) [Example 31, N-(2-hydroxypropyl)-4-(1H-pyrrolo[3,2-c]pyridin-4-yl)benzamide]: 1.5 nM. To `O=C(NC1CCN(C(=O)C2CC2)CC1)c1ccc(-c2nccc3occc23)c(F)c1` [Example 324, N-[1-(cyclopropanecarbonyl)piperidin-4-yl]-3-fluoro-4-(furo[3,2-c]pyridin-4-yl)benzamide] belongs 1.3 nM; to `O=C(NC1CCN(c2ncc(CO)cn2)CC1)c1ccc(-c2nccc3occc23)cc1` [Example 160, 4-(furo[3,2-c]pyridin-4-yl)-N-{1-[5-(hydroxymethyl)pyrimidin-2-yl]piperidin-4-yl}benzamide], 2.1 nM; to `O=C(NC1CCN(c2nccc(N3CCC3)n2)CC1)c1ccc(-c2nccc3occc23)cc1` [Example 178, N-{1-[4-(azetidin-1-yl)pyrimidin-2-yl]piperidin-4-yl}-4-(furo[3,2-c]pyridin-4-yl)benzamide], 1.9 nM.

Regarding `C[C@]1(O)CC[C@H](NC(=O)c2ccc(-c3nccc4occc34)cc2)CC1` [Example 259, 4-(furo[3,2-c]pyridin-4-yl)-N-(trans-4-hydroxy-4-methylcyclohexyl)benzamide], the IC50 was determined as 2 nM. To `[2H]C([2H])([2H])O[C@H]1CC[C@H](NC(=O)c2ccc(-c3nccc4occc34)cc2)CC1` [Example 286, 4-(furo[3,2-c]pyridin-4-yl)-N-[trans-4-(methoxy-d3)cyclohexyl]benzamide] belongs 1 nM; to `Cn1c(N2CCC(NC(=O)c3ccc(-c4nccc5occc45)cc3)CC2)cccc1=O` [Example 184, 4-(furo[3,2-c]pyridin-4-yl)-N-[1-(1-methyl-6-oxo-1,6-dihydropyridin-2-yl)piperidin-4-yl]benzamide], 2.1 nM. Turning to `O=C(N[C@H]1CC[C@H](C(F)F)CC1)c1ccc(-c2nccc3occc23)cc1` [Example 310, N-[trans-4-(difluoromethyl)cyclohexyl]-4-(furo[3,2-c]pyridin-4-yl)benzamide], the concentration for half-maximal inhibition (IC50) is 2.6 nM. Next, `O=C(NCc1ccccc1Cl)c1ccc(-c2nccc3occc23)cc1` [Example 71, N-(2-chlorobenzyl)-4-(furo[3,2-c]pyridin-4-yl)benzamide]: 12 nM. Consider `O=C(NC1CCN(c2ncc(F)cn2)CC1)c1ccc(-c2nccc3occc23)cc1` [Example 157, N-[1-(5-fluoropyrimidin-2-yl)piperidin-4-yl]-4-(furo[3,2-c]pyridin-4-yl)benzamide], for which the IC50 stood at 3 nM.

As for `Cc1cccc(N2CCC(NC(=O)c3ccc(-c4nccc5occc45)cc3)CC2)n1` [Example 152, 4-(furo[3,2-c]pyridin-4-yl)-N-[1-(6-methylpyridin-2-yl)piperidin-4-yl]benzamide], the IC50 worked out at 2.3 nM. To `O=C(NCC1CCOCC1)c1ccc(-c2nccc3[nH]ccc23)cc1` [Example 22, 4-(1H-pyrrolo[3,2-c]pyridin-4-yl)-N-[(tetrahydro-2H-pyran-4-yl)methyl] benzamide] belongs 0.85 nM.

On to `O=C(NCc1ccccc1)c1ccc(-c2nccc3[nH]ccc23)cc1` [Example 8, N-benzyl-4-(1H-pyrrolo[3,2-c]pyridin-4-yl)benzamide], for which the IC50 was 1 nM.
